Measurements taken from patent US7297818B2, “Adamantane derivatives” (AstraZeneca AB, priority 1999, dated 2007).
Structures can show the parent of a compound that is named as a salt.

melting point: 245 to 248 °C
SMILES: COCCNCCCc1ccc(Cl)c(C(=O)NCC23CC4CC(CC(C4)C2)C3)c1 (as salt: hydrochloride) [Example 22, 2-Chloro-5-[3-[(2-methoxyethyl)amino]propyl]-N-(tricyclo[3.3.1.1^3,7]dec-1-ylmethyl)-benzamide, hydrochloride salt]
